How the values were obtained:
Test in all cases: HPLC-RI of hydrolysis products
Type in all cases: biochemical
BAD0428 = target: T1, BAD0428 (Bifidobacterium adolescentis, UniProt A1A0H6); details: 10 mM substrate, 50 μg/mL enzyme, 20 mM sodium phosphate pH 6.5, 37 °C, 1 h; product xylose
T1 construct: gene xynB; full length, N-terminal His-tag (pET28a), no signal peptide, E. coli BL21(DE3), TALON purified
T1 sequence (A1A0H6 1-543): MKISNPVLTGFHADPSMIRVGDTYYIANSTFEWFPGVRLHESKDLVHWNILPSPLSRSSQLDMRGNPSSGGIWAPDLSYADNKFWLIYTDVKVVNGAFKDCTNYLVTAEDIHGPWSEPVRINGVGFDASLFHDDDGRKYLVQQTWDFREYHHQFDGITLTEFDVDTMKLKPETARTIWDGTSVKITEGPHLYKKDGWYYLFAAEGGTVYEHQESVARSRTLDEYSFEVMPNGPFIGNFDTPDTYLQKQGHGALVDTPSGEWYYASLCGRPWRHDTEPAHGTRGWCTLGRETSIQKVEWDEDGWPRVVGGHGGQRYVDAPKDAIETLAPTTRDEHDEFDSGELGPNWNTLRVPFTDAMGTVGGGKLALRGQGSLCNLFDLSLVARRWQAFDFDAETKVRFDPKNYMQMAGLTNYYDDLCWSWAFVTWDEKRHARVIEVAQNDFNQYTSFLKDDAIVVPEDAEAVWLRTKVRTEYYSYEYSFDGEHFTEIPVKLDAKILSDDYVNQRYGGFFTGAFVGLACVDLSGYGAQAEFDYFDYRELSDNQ

BAD0423 = target: T2, BAD0423 (Bifidobacterium adolescentis, UniProt A1A0H1); details: 10 mM substrate, 50 μg/mL enzyme, 20 mM sodium phosphate pH 6.5, 37 °C, 1 h; products xylose and xylobiose
T2 construct: gene BAD_0423; full length, N-terminal His-tag (pET28a), no signal peptide, E. coli BL21(DE3), TALON purified
T2 sequence (A1A0H1 1-564): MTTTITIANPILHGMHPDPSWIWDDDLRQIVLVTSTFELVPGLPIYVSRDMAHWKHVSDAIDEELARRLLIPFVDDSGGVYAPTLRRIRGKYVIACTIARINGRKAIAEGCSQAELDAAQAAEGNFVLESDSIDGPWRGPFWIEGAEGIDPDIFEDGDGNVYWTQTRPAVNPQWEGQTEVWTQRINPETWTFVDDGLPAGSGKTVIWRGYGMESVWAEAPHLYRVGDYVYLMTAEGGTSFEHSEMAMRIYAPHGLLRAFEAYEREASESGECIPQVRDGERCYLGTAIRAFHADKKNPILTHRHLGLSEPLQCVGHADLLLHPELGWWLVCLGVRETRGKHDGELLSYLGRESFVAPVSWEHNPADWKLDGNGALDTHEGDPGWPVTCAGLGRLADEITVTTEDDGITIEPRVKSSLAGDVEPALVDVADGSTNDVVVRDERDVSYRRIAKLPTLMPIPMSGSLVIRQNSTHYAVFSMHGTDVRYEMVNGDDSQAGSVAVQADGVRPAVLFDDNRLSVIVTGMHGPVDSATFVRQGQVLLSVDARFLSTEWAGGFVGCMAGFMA

BAD1527 = target: T3, BAD1527 (Bifidobacterium adolescentis, UniProt A1A3M5); details: 10 mM substrate, 50 μg/mL enzyme, 20 mM sodium phosphate pH 6.5, 37 °C, 1 h; weak substrate
T3 construct: gene xynD; full length, N-terminal His-tag (pET28a), no signal peptide, E. coli BL21(DE3), TALON purified
T3 sequence (A1A3M5 1-345): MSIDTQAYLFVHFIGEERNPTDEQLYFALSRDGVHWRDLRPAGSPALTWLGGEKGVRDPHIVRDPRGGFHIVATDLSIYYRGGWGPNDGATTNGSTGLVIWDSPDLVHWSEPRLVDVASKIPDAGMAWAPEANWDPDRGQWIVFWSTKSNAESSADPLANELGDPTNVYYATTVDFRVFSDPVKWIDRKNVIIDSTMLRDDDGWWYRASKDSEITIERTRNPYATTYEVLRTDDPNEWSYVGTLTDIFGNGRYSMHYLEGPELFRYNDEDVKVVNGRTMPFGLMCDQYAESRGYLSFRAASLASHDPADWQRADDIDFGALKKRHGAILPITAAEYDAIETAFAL

OC1OC[C@@H](O[C@@H]2OC[C@@H](O)[C@H](O[C@@H]3OC[C@@H](O)[C@H](O)[C@H]3O)[C@H]2O)[C@H](O)[C@H]1O (stereo partly drawn) [DX3, 2^3-β-D-xylosyl-xylobiose]
specific activity (BAD0428): specific activity of BAD0423, BAD0428, and BAD1527 on DX3 was determined by HPLC
specific activity (BAD0423): BAD0423 showed low activities on X2 and X3 but high activity on DX3
specific activity (BAD1527): specific activity of BAD0423, BAD0428, and BAD1527 on DX3 was determined by HPLC

— article PMC7142710, “Identification of a Key Enzyme for the Hydrolysis of β-(1→3)-Xylosyl Linkage in Red Alga Dulse Xylooligosaccharide from Bifidobacterium Adolescentis” (Marine Drugs, 2020)
